Data: patent US11279682B2 (H. Lundbeck A/S, priority 2015, dated 2022)
Where two headings read alike, the source gives them in different places.

Columns and labels:
[1] = cited from earlier work
[2] = Gelling experiments (vortioxetine pyroglutamate, a salt and water in a vial, left upside down); assay type: physicochemical
Description: In one embodiment, the invention relates to a gel comprising vortioxetine pyroglutamate, a salt and water. […] A gel of the present invention is particularly useful for oral administration because it is easily swallowed compared to other oral administration forms, in particular tablets and capsules. A gel of the present invention may comprise other ingredients known in pharmaceutical science, in particular taste modifiers, as discussed above. In the present context and in line with the USP definition of a gel, a gel is intended to indicate a semisolid system consisting of either small […] or large organic molecules interpenetrated by a liquid. A gel thus presents as a coherent, viscous, plastic or non-disintegrating phase. […] In one embodiment, said gel comprises 0.1 M-1 M salt, such as 0.1 M-0.5 M salt, such as 0.1 M-0.3 M salt. […] The amounts of vortioxetine pyroglutamate are indicated as free base. It is the experience of the inventors that the volume of the aqueous phase and the final gel are roughly similar when the gel comprises a therapeutically relevant dose in a therapeutically relevant volume.
The gelling experiments were carried out in a 4 ml cylindrical vial with an inner diameter of approximately 1 cm.

[3] = Dynamic Vapour Sorption (hygroscopicity); assay type: physicochemical; conditions: for Water absorbed (DVS, change in mass): humidity up to / at 95% relative humidity, 25° C.
Description: Dynamic Vapour Sorption spectra were obtained on equipment from SMS Systems (DVS Advantage). The change in mass (relative to the dry state) of a sample (10-20 mg) was determined as a function of the relative humidity (P/P0) at 25° C.

[4] = Intrinsic dissolution rate, spinning-disc method; assay type: physicochemical; conditions: for IDR (mean of 2 determinations (mg/cm2/min)): 50 mM Tris at pH 6.8, 37° C./200 RPM, as free base
Description: The intrinsic dissolution rate (IDR) is expressed as mg vortioxetine dissolved per cm^2 surface per min. The intrinsic dissolution rate is measured using the “spinning-disc method” (μDISS Profiler Instrument from Pion Instruments).
In order to define the surface from which the test compound dissolves, miniaturized disks of compacted pure test compound are made (10 mg). The disk holding the test compound is inserted into a Teflon cup containing an imbedded magnet. The cup is inserted into a vial containing 20 ml dissolution medium (37° C./200 RPM). The dissolved test compound is measured by a fibre optic detection system (200-400 nm). The concentration is determined by comparison with a standard solution and the calculated amount of test compound released (as free base) per surface area is plotted versus time. The slope gives the intrinsic dissolution rate. The measurements are performed in duplicate. The dissolution medium was 50 mM Tris at pH 6.8. Vortioxetine HBr β-form is defined in WO 2007/144005 (see e.g. example 4c and 4d).

[5] = Example 2: 10.2 mg, potassium bromide in water 0.23 M, 1.0 mL, 4 mL vial
[6] = Example 8: 7.6 mg, sodium bromide in water 0.18 M, 1.0 mL, 4 mL vial
[7] = known salts, values from the cited reference
[8] = Example 1: 5.5 mg, potassium bromide in water 0.17 M, 1.0 mL, 4 mL vial
[9] = Example 3: 6.2 mg, sodium bromide total 0.26 M, 1.0 mL, 4 mL vial
[10] = Example 4: 10.7 mg, sodium bromide total 0.20 M, 1.0 mL, 4 mL vial
[11] = Example 5: 0.80 g, sodium chloride in water 0.20 M, 100 mL, 250 mL round-bottomed flask
[12] = Example 6: 8.0 mg, sodium chloride total 0.26 M, 1.0 mL, 4 mL vial
[13] = Example 7: 11.2 mg, sodium chloride total […], 1.0 mL, 4 mL vial
[14] = Example 9: 14 mg, sodium chloride 26 mg and water 2.0 mL, 4 mL vial

Molecule: Br.Cc1ccc(Sc2ccccc2N2CCNCC2)c(C)c1
- Solubility ([1]; (Calculated), WO 2014/044721): 3 to 3.8 mg/mL

Molecule: Cc1ccc(Sc2ccccc2N2CCNCC2)c(C)c1.O=C1CCC(C(=O)O)N1 [vortioxetine (DL)-pyroglutamate α-form]
- Standing time until a clear gel was formed [2, 5]: less than 1 minute
- Time vial left upside down with gel properties maintained [2, 5]: more than 1 hour
- Hygroscopicity (DVS) ([3]; DVS spectrum up to 95% relative humidity): not hygroscopic
- Water absorbed (DVS, change in mass) ([3]; listed as vortioxetine (DL)pyroglutamate α-form): Less than 0.3%

Molecule: O=C1CCC(C(=O)O)N1 (racemic) [DL-Pyroglutamate]
- IDR (mean of 2 determinations (mg/cm2/min)) [4]: 14.7 mg/cm2/min

Molecule: Cc1ccc(Sc2ccccc2N2CCNCC2)c(C)c1.O=C1CCC(C(=O)O)N1 [vortioxetine pyroglutamate]
- Dissolution rate compared to the HBr salt ([4]; Example 18): markedly higher dissolution rate

Molecule: Cc1ccc(Sc2ccccc2N2CCNCC2)c(C)c1.O=C1CCC(C(=O)O)N1 [vortioxetine (L)-pyroglutamate, Vortioxetine (L)-pyroglutamate]
- IDR (mean of 2 determinations (mg/cm2/min)) [4]: 14.9 mg/cm2/min
- Standing time until a clear gel was formed [2, 6]: less than 1 minute
- Time vial left upside down with gel properties maintained [2, 6]: more than 30 minutes
- Water absorbed (DVS, change in mass) [3]: 2.7%

Molecule: Br.Cc1ccc(Sc2ccccc2N2CCNCC2)c(C)c1 [HBr β-form, reference compound]
- IDR (mean of 2 determinations (mg/cm2/min)) [4]: 0.10 mg/cm2/min
- Solubility [1, 7]: 1.2 mg/mL

Molecule: Cc1ccc(Sc2ccccc2N2CCNCC2)c(C)c1.O.O=C1CCC(C(=O)O)N1 [vortioxetine (DL)-pyroglutamate MH]
- Standing time until a clear gel was formed [2, 8]: less than 1 minute
- Time vial left upside down with gel properties maintained [2, 8]: more than 1 hour
- Standing time until a clear gel was formed [2, 9]: less than 1 minute
- Time vial left upside down with gel properties maintained [2, 9]: more than 30 minutes
- Standing time until a clear gel was formed [2, 10]: less than 1 minute
- Time vial left upside down with gel properties maintained [2, 10]: more than 1 hour
- Standing time until a clear gel was formed [2, 11]: 2 min
- Time flask left upside down with gel properties maintained [2, 11]: more than 30 minutes
- Standing time until a clear gel was formed [2, 12]: 6 min
- Time vial left upside down with gel properties maintained [2, 12]: more than 1 hour
- Standing time until a clear gel was formed [2, 13]: 5 min
- Time vial left upside down with gel properties maintained [2, 13]: more than 30 minutes
- Standing time until gel was formed [2, 14]: less than 1 minute
- Time vial left upside down with gel properties maintained [2, 14]: more than 10 minutes
- Hygroscopicity (DVS) ([3]; at 95% relative humidity): hygroscopic
- Water absorbed (DVS, change in mass) [3]: more than 10%
- Hygroscopicity (DVS) ([3]; up to 80% relative humidity at 25° C.): not hygroscopic

Molecule: Phosphate
- Solubility [1, 7]: 1 mg/mL

Molecule: Cc1ccc(Sc2ccccc2N2CCNCC2)c(C)c1.Cl [HCl]
- Solubility [1, 7]: 3 mg/mL

Molecule: Maleate
- Solubility [1, 7]: 1 mg/mL

Molecule: CC(O)C(=O)O.Cc1ccc(Sc2ccccc2N2CCNCC2)c(C)c1 [DL-lactate β-form]
- Solubility [1, 7]: 8 mg/mL

Molecule: CC(O)C(=O)O.Cc1ccc(Sc2ccccc2N2CCNCC2)c(C)c1.O [L-lactate Monohydrate2]
- Solubility [1, 7]: 26 mg/mL
